# From patent US11351274B2, “Methods of using optical agents” (MediBeacon Inc., priority 2006, dated 2022)
# Like-named read-outs stand apart in the source and are kept apart here.
# Tests used:
# [1] = Excitation and emission wavelengths of optical agents; assay type: physicochemical; settings: see Example 3 and FIG. 4
# Description: In one exemplary embodiment, the optical agent is excited by light having a wavelength in the blue range of the visible portion of the electromagnetic spectrum (from about 430 nm to about 500 nm) and emits at a wavelength in the green range of the visible portion of the electromagnetic spectrum (from about 520 nm to about 565 nm). For example, fluorescein dyes can be excited with light with a wavelength of about 488 nm and have an emission wavelength of about 520 nm. As another example, 3,6-diaminopyrazine-2,5-dicarboxylic acid can be excited with light having a wavelength of about 470 nm and fluoresces at a wavelength of about 532 nm (see Example 3 and FIG. 4 herein).
# In another embodiment, the excitation and emission wavelengths of the optical agent may fall in the near-infrared range of the electromagnetic spectrum. For example, indocyanine dyes, such as indocyanine green, can be excited with light with a wavelength of about 780 nm and have an emission wavelength of about 830 nm.
# [2] = Renal clearance in an intact rat (fluorescence from within the ear); assay type: in vivo, Sprague-Dawley rat; settings: bolus injection into lateral tail vein, 2 ml of 0.4 mg/ml in PBS, 470 nm laser at ear
# Description: (§1) Incident laser light having a wavelength of about 470 nm was delivered via a fiber optic bundle to the ear of an anesthetized intact Sprague-Dawley rat. A photodetector was used to detect fluorescence from within the ear. A background reading of fluorescence was obtained prior to administration of optical agent. A pyrazine agent (2 ml of a 0.4 mg/ml solution of 3,6-diaminopyrazine-2,5-dicarbonyl acid in PBS) was then administered to the rat by a bolus injection into the lateral tail vein.
# The blood clearance time profile likely followed a two compartment pharmacokinetic model. The fluorescent signal arising from the agent concentration in the blood as a function of time was therefore fit to a double exponential decay. The equation employed to fit the data was: S=Ae^−t/τ1Be^−t/τ2+C (1) where S is the fluorescent light intensity signal measured, and t is the time point of the measurement. The decay times τ1 and τ2, and the constants A, B, and C were deduced from the fitting procedure. The non-linear regression analysis package in SigmaPiot® (Systat Software Inc., Richmond Calif.) was used to fit data to Eq. (1). In this and the following example, τ1 represents the time constant for vascular-extracellular fluid equilibrium, and T2 represents optical agent clearance from the blood.
# [3] = Renal clearance in a bilaterally nephrectomized rat (fluorescence from within the ear); assay type: in vivo, Sprague-Dawley rat; settings: bilaterally nephrectomized rat compared with intact rat
# Description: as §1, with “An anesthetized Sprague-Dawley rat was bilaterally nephrectomized. Incident” for “Incident”, “of the” for “of an anesthetized intact Sprague-Dawley”, “of the pyrazine” for “of optical”, “agent. The” for “agent. A”, “vein. […] Specifically, the renal arteries were tied off to block blood flow to the kidneys.” for “vein.”
# A comparison of clearance data from the intact rat (FIG. 1) and the bilaterally nephrectomized rat (FIG. 2) is shown in FIG. 3.
# [4] = Detection of optical agent in a rat ureter by fluorescence; assay type: in vivo, Sprague-Dawley rat
# Description: A Sprague-Dawley rat was anesthetized with a cocktail of ketamine (87 mg/kg) and xylazine (2.6 mg/kg) administered by intraperitoneal injection. After the animal had achieved the desired plane of anesthesia, a 25 gauge butterfly with 3″ tubing was placed in the lateral tail vein of the animal and flushed with saline, The rat was placed onto a heating pad and kept warm throughout the study.
# An abdominal incision was made to access the ureters and expose the ureters to a laser having the appropriate wavelength to cause the optical agent employed to fluoresce. Data acquisition was initiated, and a background reading of fluorescence was obtained prior to administration of the optical agent.
# The optical agent, 3,6-diaminopyrazine-2,5-dicarboxylic acid, was administered to the rat by a bolus injection into the lateral tail vein and traveled through the circulatory system and kidneys to reach the ureters. The dose of optical agent was about 2 mL of 0.4 mg/mL solution in PBS. The rat weighed approximately 250 g.
# A 3 mW laser from Power Technology, Inc. (Little Rock, […].) was used to emit light into one end of a fiber optic bundle, the other end of the bundle being positioned adjacent the ureter. […] As shown in FIGS. 5-6, when the surgical field was exposed to incident light having a wavelength of about 470 nm, the optical agent within the ureters emitted fluorescent energy at a wavelength of about 530 nm. Images of the surgical field showing the fluorescing optical agent in the ureter are shown in FIGS. 5-6 (in the absence of a 500 nm long pass filter) and FIG. 7 (in the presence of a 500 nm long pass filter).
# [5] = general statement in the description; cited from earlier work
fluorescence emission wavelength ([1]; excitation about 470 nm),excitation wavelength [1],period over which the agent was cleared from the bloodstream [2],route of excretion concluded from failure to clear [3],"time after intravenous administration at which fluorescence within the ureter was detected ([4]; rat, about 2 mL of 0.4 mg/mL in PBS, tail vein bolus)",SMILES,"fluorescence emission wavelength within the ureters ([4]; incident light of about 470 nm, in vivo in rat ureter)","localisation of fluorescence in the surgical field ([4]; rat, ureter versus surrounding tissue)",emission wavelength [5],excitation wavelength [5]
about 532 nm,about 470 nm,slightly over twenty,renally excretable,about 40 minutes,"Nc1nc(C(=O)O)c(N)nc1C(=O)O [3,6-diaminopyrazine-2,5-dicarboxylic acid]",about 530 nm,only observed from the ureter and not from any surrounding tissue,–,–
–,–,–,–,–,CC1(C)C(/C=C/C=C/C=C/C=C2\N(CCCCS(=O)(=O)O)c3ccc4ccccc4c3C2(C)C)=[N+](CCCCS(=O)(=O)[O-])c2ccc3ccccc3c21 [indocyanine green],–,–,about 830 nm,about 780 nm
